Assay results from patent US20190255073A1, “ESTERS OF 3-POLYAMINE DERIVATIVES OF BILE ACIDS FOR THE TREATMENT OF INFECTIONS” (VIRBAC, priority 2016, published 2019).
≈ marks a conversion by molar mass, not a printed value. Like-named read-outs stand apart in the source and are kept apart here.

Tests used:
S. aureus ATCC25923 = experiment: MIC determination by microplate dilution, S. aureus human strain; type: cell-based, Staphylococcus aureus; details: Mueller-Hinton medium, 24 h, 37° C.; for MIC: Staphylococcus aureus, ATCC25923, Gram-positive
How it was run: (§1)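 MH broth; inoculum OD 0.01/well; compound stock 5 mg/mL (DMSO:MeOH 1:1), serial 1/2 dilutions; 37 °C, 24 h, humid; OD 620 nm; n=2.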

S. aureus (340) = experiment: MIC determination by microplate dilution, S. aureus animal strain; type: cell-based, Staphylococcus aureus; details: Gram-positive, Mueller-Hinton medium, 24 h, 37° C.; for MIC: Staphylococcus aureus
How it was run: as §1

S. intermedius (1051997) = experiment: MIC determination by microplate dilution, S. intermedius animal strain; type: cell-based, Staphylococcus intermedius; details: Gram-positive, Mueller-Hinton medium, 24 h, 37° C.; for MIC: Staphylococcus intermedius
How it was run: as §1

E. faecalis ATCC29212 = experiment: MIC determination by microplate dilution, E. faecalis human strain; type: cell-based, Enterococcus faecalis; details: Mueller-Hinton medium, 24 h, 37° C.; for MIC: Enterococcus faecalis, ATCC29212, Gram-positive
How it was run: as §1

E. coli ATCC28922 = experiment: MIC determination by microplate dilution, E. coli human strain; type: cell-based, Escherichia coli; details: Mueller-Hinton medium, 24 h, 37° C.; for MIC: Escherichia coli, ATCC28922, Gram-negative
How it was run: as §1

E. coli (1956) = experiment: MIC determination by microplate dilution, E. coli animal strain; type: cell-based, Escherichia coli; details: Gram-negative, Mueller-Hinton medium, 24 h, 37° C.; for MIC: Escherichia coli
How it was run: as §1

P. aeruginosa ATCC27853 = experiment: MIC determination by microplate dilution, P. aeruginosa human strain; type: cell-based, Pseudomonas aeruginosa; details: Mueller-Hinton medium, 24 h, 37° C.; for MIC: Pseudomonas aeruginosa, ATCC27853, Gram-negative
How it was run: as §1

P. aeruginosa (1051575) [1] = experiment: MIC determination by microplate dilution, P. aeruginosa animal strain; type: cell-based, Pseudomonas aeruginosa; details: Gram-negative, Mueller-Hinton medium, 24 h, 37° C.; for MIC: Pseudomonas aeruginosa
How it was run: as §1

CHO-K1 cells = experiment: WST1 cytotoxicity test on CHO-K1 cells; type: cell-based, Chinese hamster; details: for IC50: Cricetulus griseus
How it was run: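 Viability read-out: WST-1 tetrazolium cleavage by mitochondrial dehydrogenases, 20 min at 37 °C, A450. Compounds added at rising concentrations, in duplicate, to CHO-K1 cells for 24 h (37 °C, 5% CO2). IC50, the concentration halving viability, fitted by nonlinear regression.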

P. aeruginosa (1051575) [2] = experiment: Potentiation of the doxycycline activity at 2 μg/mL; type: cell-based, Pseudomonas aeruginosa; details: in combination with doxycycline 2 μg/mL; 24 h, 37°
C. albicans = experiment: Antifungal activity, cascade microdilution, C. albicans; type: cell-based, Candida albicans; details: 24 h; for IC50: Candida albicans, read-out: IC50 (μg/mL) C. albicans
P. aeruginosa (1051575) [3] = experiment: Potentiation of erythromycin activity; type: cell-based, Pseudomonas aeruginosa; details: concentration of compound required with erythromycin 2 μg/mL
Protocol: This method requires the use of a 96-well plate: 100 μL of a liquid culture medium are placed in each well and then seeded with the microbial suspension prepared previously. The required volume to be seeded is calculated for an OD of 0.01, which corresponds to about 5×10^6 bacteria in each well. In this plate, the first line corresponds to a negative control (200 μL of sterile culture medium in each well), the second line corresponds to a positive control (100 μL of sterile culture medium+100 μL of the bacterial suspension), and the third line contains 192 μL of culture medium; 8 μL of compound of formula (I) to be tested are placed in each well. Thereafter, a cascade dilution is performed from this line. […] (1 mg dissolved in 20 mL) are then added to each well of the lines 3 to 8 to obtain a final antibiotic concentration of 2 μg/mL. 92 μL of bacterial suspension are then added to lines 3 to 8. […] After 24 hours of incubation at 37° C., 40 μL of nitro tetrazolium iodide are added to each well to reveal the presence of live bacteria by staining the medium pink.
The procedure is identical to that indicated in Example 5 above. 8 μL of an antibiotic solution under consideration (1 mg dissolved in 20 mL) are added to obtain a final antibiotic concentration of 2 μg/mL instead of 8 μL of a doxycycline solution.
The results are given in table V. They indicate the concentration of compound of formula (I) required to be able to restore the activity of the antibiotic under consideration.

[4] = CHO-K1, 24 h, read-out: IC50 (μg/mL) CHO
[5] = CHO-K1, read-out: IC50 (μg/mL) CHO
[6] = CHO-K1, CHO (Example 7), read-out: IC50 (μg/mL) CHO
[7] = compounds as hydrochloride in water, MH medium

| Compound | MIC (S. aureus ATCC25923) | MIC (S. aureus (340)) | MIC (S. intermedius (1051997)) | MIC (E. faecalis ATCC29212) | MIC (E. coli ATCC28922) | MIC (E. coli (1956)) | MIC (P. aeruginosa ATCC27853) | MIC (P. aeruginosa (1051575) [1]) | IC50 (CHO-K1 cells; [4]) | IC50 (CHO-K1 cells; [5]) | MIC - P. aeruginosa (1051575): content of compound of formula (I) to restore the doxycycline activity (at 2 μg/mL) (P. aeruginosa (1051575) [2]) | IC50 (C. albicans) | also measured |
| --- | --- | --- | --- | --- | --- | --- | --- | --- | --- | --- | --- | --- | --- |
| CC(C)OC(=O)CC[C@@H](C)[C@H]1CCC2C3CCC4C[C@@H](NCCCNCCCN)CC[C@]4(C)C3CC[C@@]21C (stereo partly drawn) [(16), isopropyl 3β-norspermidinolithocholate] | 3.5 µg/mL (≈ 6.58 µM) | 3.5 µg/mL (≈ 6.58 µM) | 7 µg/mL (≈ 13.2 µM) | 3.5 µg/mL (≈ 6.58 µM) | 14 µg/mL (≈ 26.3 µM) | 7 µg/mL (≈ 13.2 µM) | 7 µg/mL (≈ 13.2 µM) | 3.5 µg/mL (≈ 6.58 µM) | 13 µg/mL (≈ 24.4 µM) | 13 µg/mL (≈ 24.4 µM) | 3 µg/mL | 2 µg/mL (≈ 3.76 µM) |  |
| COC(=O)CC[C@@H](C)[C@H]1CCC2C3CCC4C[C@@H](NCCNCCNCCNCCN)CC[C@]4(C)C3C[C@H](O)[C@@]21C (stereo partly drawn) [(19), methyl 3β-(tetraethylenepentamine)deoxycholate] | 4 µg/mL (≈ 6.92 µM) | 7 µg/mL (≈ 12.1 µM) | 7 µg/mL (≈ 12.1 µM) | 7 µg/mL (≈ 12.1 µM) | 7 µg/mL (≈ 12.1 µM) | 29 µg/mL (≈ 50.2 µM) | 15 µg/mL (≈ 26 µM) | 7 µg/mL (≈ 12.1 µM) | 40 µg/mL (≈ 69.2 µM) | 40 µg/mL (≈ 69.2 µM) | 4 µg/mL | 4 µg/mL (≈ 6.92 µM) |  |
| CC(C)OC(=O)CC[C@@H](C)[C@H]1CCC2C3C(C[C@H](O)[C@@]21C)[C@@]1(C)CC[C@H](NCCNCCNCCNCCNCCN)CC1C[C@H]3O (stereo partly drawn) [(21), isopropyl 3β-(pentaethylenehexamine)cholate] | 33 µg/mL (≈ 49.6 µM) | 33 µg/mL (≈ 49.6 µM) | 16 µg/mL (≈ 24.1 µM) | 33 µg/mL (≈ 49.6 µM) | 33 µg/mL (≈ 49.6 µM) | 66 µg/mL (≈ 99.2 µM) | 66 µg/mL (≈ 99.2 µM) | 66 µg/mL (≈ 99.2 µM) |  |  |  |  | IC50 (CHO-K1 cells; [6]): 105 µg/mL (≈ 158 µM); IC50 (C. albicans; [7]): 66 µg/mL (≈ 99.2 µM) |
| CC(C)OC(=O)CC[C@@H](C)[C@H]1CCC2C3CCC4C[C@@H](NCCNCCNCCNCCNCCN)CC[C@]4(C)C3C[C@H](O)[C@@]21C (stereo partly drawn) [(27), isopropyl 3β-(pentaethylenehexamine)deoxycholate] | 16 µg/mL (≈ 24.7 µM) | > 130 µg/mL | 16 µg/mL (≈ 24.7 µM) | 32 µg/mL (≈ 49.3 µM) | 32 µg/mL (≈ 49.3 µM) | 65 µg/mL (≈ 100 µM) | 65 µg/mL (≈ 100 µM) | 65 µg/mL (≈ 100 µM) |  | 110 µg/mL (≈ 169 µM) | 8 µg/mL | 4 µg/mL (≈ 6.16 µM) |  |
| COC(=O)CC[C@@H](C)[C@H]1CCC2C3CCC4C[C@@H](NCCCN(C)CCCN)CC[C@]4(C)C3C[C@H](O)[C@@]21C (stereo partly drawn) [(31), methyl 3β-(bis(3-aminopropyl)methylamine)deoxycholate] | 7 µg/mL (≈ 13.1 µM) | 7 µg/mL (≈ 13.1 µM) | 3 µg/mL (≈ 5.62 µM) | 13 µg/mL (≈ 24.4 µM) | 26 µg/mL (≈ 48.7 µM) | 13 µg/mL (≈ 24.4 µM) | 26 µg/mL (≈ 48.7 µM) | 13 µg/mL (≈ 24.4 µM) | 55 µg/mL (≈ 103 µM) | 55 µg/mL (≈ 103 µM) | 3 µg/mL | 2 µg/mL (≈ 3.75 µM) |  |
| COC(=O)CC[C@@H](C)[C@H]1CCC2C3CCC4C[C@@H](NCCCN(CCCN)CCCN)CC[C@]4(C)C3C[C@H](O)[C@@]21C (stereo partly drawn) [(32), methyl 3β-(tris(3-aminopropyl)amine)deoxycholate] | 4 µg/mL (≈ 6.93 µM) | 7 µg/mL (≈ 12.1 µM) | 7 µg/mL (≈ 12.1 µM) | 14 µg/mL (≈ 24.3 µM) | 7 µg/mL (≈ 12.1 µM) | 30 µg/mL (≈ 52 µM) | 14 µg/mL (≈ 24.3 µM) | 7 µg/mL (≈ 12.1 µM) | 30 µg/mL (≈ 52 µM) | 30 µg/mL (≈ 52 µM) | 4 µg/mL | 2 µg/mL (≈ 3.47 µM) |  |
| CC(C)OC(=O)CC[C@@H](C)[C@H]1CCC2C3C(CC[C@@]21C)[C@@]1(C)CC[C@H](NCCN(CCN)CCN)CC1C[C@@H]3O (stereo partly drawn) [(43), isopropyl 3β-(tris(2-aminoethyl)amine)ursodeoxycholate] |  |  | 7 µg/mL (≈ 12.4 µM) |  |  | 56 µg/mL (≈ 99.5 µM) |  | 14 µg/mL (≈ 24.9 µM) |  |  |  |  | MIC P. aeruginosa (1051575), compound + erythromycin (P. aeruginosa (1051575) [3]): 28 µg/mL |
| CC(C)OC(=O)CC[C@@H](C)[C@H]1CCC2C3C(CC[C@@]21C)[C@@]1(C)CC[C@H](NCCCNCCCN)CC1C[C@@H]3O (stereo partly drawn) [Compound (14), isopropyl 3β-norspermidinoursodeoxycholate] |  | 55 µg/mL (≈ 100 µM) | 12.5 µg/mL (≈ 22.8 µM) |  |  | 110 µg/mL (≈ 201 µM) |  | 110 µg/mL (≈ 201 µM) |  |  |  |  | IC50 (CHO-K1 cells; [6]): 200 µg/mL (≈ 365 µM); IC50 (C. albicans; [7]): 28 µg/mL (≈ 51.1 µM) |
| methyl 3β-(bis(3-aminopropyl)methylamine)ursodeoxycholate [(53)] |  |  |  |  |  |  |  |  |  |  | 7 µg/mL |  | MIC S. aureus Human ATCC25923 (S. aureus ATCC25923; Gram-positive): 27 µg/mL; MIC S. aureus Animal (340) (S. aureus (340)): 27 µg/mL; MIC S. intermedius Animal (1051997) (S. intermedius (1051997)): 7 µg/mL; MIC E. faecalis Human ATCC29212 (E. faecalis ATCC29212; Gram-positive): 55 µg/mL; MIC E. coli Human ATCC28922 (E. coli ATCC28922; Gram-negative): 55 µg/mL; MIC E. coli Animal (1956) (E. coli (1956)): 55 µg/mL; MIC P. aeruginosa Human ATCC27853 (P. aeruginosa ATCC27853; Gram-negative): 55 µg/mL; MIC P. aeruginosa Animal (1051575) (P. aeruginosa (1051575) [1]): 55 µg/mL; IC50 (μg/mL) CHO (CHO-K1 cells; CHO (Example 7)): 50 µg/mL; IC50 (μg/mL) CHO (CHO-K1 cells; Table III, WST1, CHO-K1 cells, 24 h, concentration reducing cell viability by 50%): 50 µg/mL; IC50 (μg/mL) C. albicans (C. albicans; [7]): 3 µg/mL |
